Data set [1] is described as follows: Partition coefficient, log P of the compound. The format is physicochemical. To be noted: octanol/water.
Data set [2] deals with T1, Enoyl-[acyl-carrier-protein] reductase [NADH] (Mycobacterium tuberculosis, UniProt P9WGR1).
T1 sequence (P9WGR1 whole entry): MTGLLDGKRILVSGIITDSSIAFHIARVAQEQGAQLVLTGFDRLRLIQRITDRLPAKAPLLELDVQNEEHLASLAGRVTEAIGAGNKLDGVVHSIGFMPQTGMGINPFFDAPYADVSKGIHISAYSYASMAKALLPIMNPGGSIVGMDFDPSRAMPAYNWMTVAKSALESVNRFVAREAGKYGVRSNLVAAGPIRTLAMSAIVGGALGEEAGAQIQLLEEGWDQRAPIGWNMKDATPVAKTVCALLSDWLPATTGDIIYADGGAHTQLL
Description: Inhibition of Mycobacterium tuberculosis InhA

Each structure is given as a SMILES string.

Usually logP stands for a log measure of how a compound divides between an organic and an aqueous phase. For the molecule `CCCCCCc1ccc(Oc2ccccc2)c(O)c1`, in data set [1] (read-out: logP), the log partition coefficient (logP) was determined as 5.64.

Take `CCCCCCc1ccc(Oc2cccnc2)c(O)c1`: the logP in data set [1] (read-out: logP) was 4.33.

Consider `CCCCCCc1ccc(Oc2cccc([N+](=O)[O-])c2)c(O)c1`, for which, in data set [1] (read-out: logP), the logP came to 4.49.

As to `CCCCCCc1ccc(Oc2ccccc2CN2CCN(C)CC2)c(O)c1`, in data set [1] (read-out: logP), the logP was 5.33. Regarding `CCCCCCc1ccc(Oc2ncccn2)c(O)c1`, the lipophilicity (logP) in data set [1] (read-out: logP) amounted to 4.13. As usually defined, the IC50 is the concentration that inhibits the measured activity by half. A lower IC50 goes with inhibition by little substance. `CCCCCCc1ccc(Oc2cccc(NC(C)=O)c2)c(O)c1` gave an IC50 in data set [2] of 579 nM. Moreover, the logP in data set [1] (read-out: logP) turned out to be 5.

Take `CCCCCCc1ccc(Oc2ccc(N)cc2)c(O)c1`: the lipophilicity (logP) in data set [1] (read-out: logP) is 4.42.

In the case of `CCCCCCc1ccc(Oc2ccc(CN3CCN(C)CC3)cc2)c(O)c1`, the log partition coefficient (logP) in data set [1] (read-out: logP) is 5.33. Still for that read-out and setting: in the case of `CCCCCCc1ccc(Oc2ccncc2)c(O)c1` it was 4.33. On the same count and under the same terms, in the case of `CCCCCCc1ccc(Oc2ccc(NC(C)=O)cc2)c(O)c1` it was 5; in that of `CCCCCCc1ccc(Oc2ccccc2NC(C)=O)c(O)c1`, 5.

For the molecule `CCCCCCc1ccc(Oc2ccc(NC(=O)C(=O)O)cc2)c(O)c1`, the logP in data set [1] (read-out: logP) amounted to 5.59. Still for that read-out and setting: for `CCCCCCc1ccc(Oc2cnccn2)c(O)c1` the value was 4.12. On the same count and under the same terms, in the case of `CCCCCCc1ccc(Oc2ccccn2)c(O)c1` it was 5.03. On the same count and under the same terms, in the case of `CCCCCCc1ccc(Oc2cccc(N)c2)c(O)c1` it was 4.42. Take `CCCCCCc1ccc(Oc2ccc([N+](=O)[O-])cc2)c(O)c1`: in data set [1], the lipophilicity (logP) is 4.489. Take `CCCCCCc1ccc(Oc2ccccc2NC(=O)c2ccno2)c(O)c1`: in data set [1] (read-out: logP), the logP was found to be 4.86. Regarding `CCCCCCc1ccc(Oc2ccccc2[N+](=O)[O-])c(O)c1`, the lipophilicity (logP) in data set [1] stood at 4.489. On to `CCCCCCc1ccc(Oc2cccc(NC(=O)c3ccno3)c2)c(O)c1`, for which the logP in data set [1] (read-out: logP) came out at 4.86.

For the molecule `CCCCCCc1ccc(Oc2ccccc2N)c(O)c1`, the lipophilicity (logP) in data set [1] (read-out: logP) is 4.42.

For `CCCCCCc1ccc(Oc2ccc(NC(=O)c3ccno3)cc2)c(O)c1`, the logP in data set [1] (read-out: logP) worked out at 4.86.

Values taken from ChEMBL document CHEMBL3044988, “QSAR analysis of B-ring-modified diaryl ether derivatives as a InhA inhibitors” (Med Chem Res, 2012).
